Drawing on patent US10369138B2, “Monobactam organic compounds for the treatment of bacterial infections” (Novartis AG, priority 2014, dated 2019), this text covers MIC for 13 molecules.

Common to all, as to format: cell-based
For one assay, the system named is E. coli containing KPC-2. Description: MIC by broth microdilution, E. coli containing KPC-2 (Ec KPC2 Iso). Conditions: Escherichia coli, read-out: Ec KPC2 Iso (MIC), E. coli containing KPC-2 (carbapenemase from Klebsiella pneumoniae). Put shortly:
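Host E. coli BW25113 pspB carrying multicopy pBAD18-kan plasmid with constitutive TEM-promoter KPC-2 expression (periplasmic signal sequence); broth microdilution per CLSI in cation-adjusted Mueller-Hinton broth, inoculum ~5×10^5 CFU/mL, compounds twofold serially diluted from DMSO masters (10% DMSO in dilution series added).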

A further assay relates to E. coli strain 25922. Description: MIC by broth microdilution, E. coli strain 25922. Conditions: Escherichia coli, 25922, E. coli strain 25922; read-out: Ec 25922 (MIC). An outline of the steps: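 CLSI broth microdilution in cation-adjusted Mueller-Hinton broth, inoculum about 5×10^5 CFU/mL, 10% DMSO from the diluted series, 20 h at 35-37° C. MIC is the lowest concentration preventing visible growth, read by eye and at 600 nm.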

The subject of assay [1] is E. coli NB27273-CDY0030 (SHV12). The assay can be described thus: MIC by broth microdilution, isogenic E. coli strain expressing SHV12. The settings on record: Escherichia coli, read-out: Strain 3 MIC. How it is done:
Bacterial isolates were cultivated from −70° C. frozen stocks by two consecutive overnight passages at 35° C. in ambient air on 5% blood agar (Remel, Lenexa, Kans.). Quality control and P. aeruginosa ATCC 27853) is from the American Type Culture Collection (ATCC; Rockville, Md.) and PAO1 was received from Dr. K. Poole.
Strain NB27273 (BW25113 pspB::Km^r) was obtained from the Keio transposon insertion collection. The strain has the pspB gene replaced by a kanamycin resistance marker (BW25113 pspB::Km^r). This strain was cured of the transposon in pspB via FLP recombinase using published methodology. The resulting strain, BW25113 pspB, was used as a host for multicopy vectors expressing key β-lactamases. Multicopy plasmids directing constitutive expression of β-lactamases were established as follows: Synthetic, codon optimized genes encoding E. coli KPC2 and SHV12 β-lactamases were made by DNA2.0 (Palo Alto, Calif.). Each of the synthetic fragments were designed to contain NotI and NcoI restriction sites at their termini, allowing ligation into a NotI/NcoI digested pET28a(+) derivative for protein expression. […] The codon optimized nucleotide sequences and relevant primer recognition information is shown below:
The PCR products were then digested with XhoI and EcoRI and ligated into similarly digested plasmid pAH63-pstS(BlaP). Plasmid pAH63-pstS(BlaP) is a derivative of plasmid pAH63 (J Bacteriol: 183(21): 6384-6393) made by cloning the TEM-1 (bla) promoter and signal peptide encoding region from plasmid pBAD (J Bacteriol. 1995 July 177(14):4121-30) into plasmid pAH63. This fragment was PCR amplified from pBAD using primer pair E192 (ttcaCTGCAGtgaacgttgcgaagcaacggC) (SEQ ID NO:13) and E194 (TCGAggatcctcgagagcaaaaacaggaaggcaaaatgccg) (SEQ ID NO:14), digested with PstI and BamHI and inserted into similarly digested plasmid pAH63. Therefore, expression of β-lactamases from pAH63-pstS(BlaP) based constructs is constitutive and the signal sequence is provided to direct these proteins to the periplasm. […] To accomplish this, the inserts encompassing the β-lactamase genes, with the associated TEM promoter and signal sequences, were PCR amplified from their corresponding vectors using primer E269 (ccgTCTAGAcggatggcctttttgcgtttc) (SEQ ID NO:15) and E202 (aatcGAATTCttactgaccattaacgcccaagc) (SEQ ID NO:16) for the KPC2 construct and E204 (aatcGAATTCttaacgctgccagtgctcaatc) (SEQ ID NO:17) for the SHV12 construct. These fragments were then digested with XbaI and EcoRI, and each was inserted into pBAD18-kan that had been digested with the same enzymes to generate a pair of multicopy vectors expressing KPC2 and SHV12 respectively. These vectors were transformed into BW25113 pspB to generate strains NB27273-CDY0033 (expressing KPC2) and NB27273-CDY0030 (expressing SHV12). The pBAD18-kan vector also contains the TEM promoter region and signal sequence, (but lacks any intact β-lactamase genes) and was transformed into BW25113 pspB using standard protocols to generate the control strain NB27273-CDY0026. […] Susceptibility Testing
Minimal Inhibitory Concentrations (MICs) were determined by the broth microdilution method in accordance with Clinical and Laboratories Institute (CLSI) guidelines. In brief, fresh overnight bacterial cultures were suspended in sterile saline, and adjusted to a 0.5 McFarland turbidity standard. Bacterial suspensions were then diluted in cation adjusted Mueller-Hinton Broth (MHB II; BBL) to yield a final inoculum of approximately 5×10^5 colony-forming units (CFU)/mL. A master plate of antibiotics was prepared at a concentration equivalent to hundred-fold the highest desired final concentration in 100% dimethyl sulfoxide (DMSO). The master antibiotic plate was then diluted by serial twofold dilution with a multichannel pipette. The resulting dilution series of compounds were diluted 1:10 with sterile water leading to a 10% DMSO final concentration.

Values after ≈ are worked out from the molar mass of the structure shown.

On to `N=C(NCc1cnn(C[C@@H]2[C@H](NC(=O)/C(=N\OC3(C(=O)O)CC3)c3csc(N)n3)C(=O)N2S(=O)(=O)O)n1)N[C@H]1C[C@@H](N)C1` [Example 140, 1-(((Z)-(2-(((2R,3S)-2-((4-((3-((1 s,3S)-3-aminocyclobutyl)guanidino)methyl)-2H-1,2,3-triazol-2-yl)methyl)-4-oxo-1-sulfoazetidin-3-yl)amino)-1-(2-aminothiazol-4-yl)-2-oxoethylidene)amino)oxy)cyclopropanecarboxylic acid], for which the minimal inhibitory concentration (MIC) in the assay on E. coli containing KPC-2 and in the assay on E. coli strain 25922 was 0.25 µg/mL (≈ 0.39 µM) each time. For the molecule `N=C(NCc1cnn(C[C@@H]2[C@H](NC(=O)/C(=N\OC3(C(=O)O)CC3)c3csc(N)n3)C(=O)N2S(=O)(=O)O)n1)N[C@H]1CCNC1` [Example 141, 1-(((Z)-(1-(2-aminothiazol-4-yl)-2-oxo-2-(((3S,4R)-2-oxo-4-((4-((3-((S)-pyrrolidin-3-yl)guanidino)methyl)-2H-1,2,3-triazol-2-yl)methyl)-1-sulfoazetidin-3-yl)amino)ethylidene)amino)oxy)cyclopropanecarboxylic acid], the MIC in the assay on E. coli containing KPC-2 and in the assay on E. coli strain 25922 was 0.5 µg/mL (≈ 0.78 µM) each time.

Turning to `Cc1nn(C[C@@H]2[C@H](NC(=O)/C(=N\OC3(C(=O)O)CC3)c3csc(N)n3)C(=O)N2S(=O)(=O)O)nc1CN` [Example 143, 1-(((Z)-(2-(((2R,3S)-2-((4-(aminomethyl)-5-methyl-2H-1,2,3-triazol-2-yl)methyl)-4-oxo-1-sulfoazetidin-3-yl)amino)-1-(2-aminothiazol-4-yl)-2-oxoethylidene)amino)oxy)cyclopropanecarboxylic acid], the results for the minimal inhibitory concentration (MIC) with E. coli containing KPC-2 and in the assay with E. coli strain 25922 were 0.25 µg/mL (≈ 0.46 µM) and 0.5 µg/mL (≈ 0.92 µM), respectively.

Turning to `Cc1nn(C[C@@H]2[C@H](NC(=O)/C(=N\OC3(C(=O)O)CC3)c3csc(N)n3)C(=O)N2S(=O)(=O)O)nc1CNC(=N)NCCCN` [Example 144, 1-(((Z)-(2-(((2R,3S)-2-((4-((3-(3-aminopropyl)guanidino)methyl)-5-methyl-2H-1,2,3-triazol-2-yl)methyl)-4-oxo-1-sulfoazetidin-3-yl)amino)-1-(2-aminothiazol-4-yl)-2-oxoethylidene)amino)oxy)cyclopropanecarboxylic acid], the MIC in the assay with E. coli containing KPC-2 and in the assay on E. coli strain 25922 was 1 µg/mL (≈ 1.56 µM) in each case.

As to `CC(NC(=N)NCCCN)c1cnn(C[C@@H]2[C@H](NC(=O)/C(=N\OC3(C(=O)O)CC3)c3csc(N)n3)C(=O)N2S(=O)(=O)O)n1` (stereo partly drawn) [Example 145, 1-(((Z)-(2-(((2R,3S)-2-((4-(1-(3-(3-aminopropyl)guanidino)ethyl)-2H-1,2,3-triazol-2-yl)methyl)-4-oxo-1-sulfoazetidin-3-yl)amino)-1-(2-aminothiazol-4-yl)-2-oxoethylidene)amino)oxy)cyclopropanecarboxylic acid], the MIC with E. coli containing KPC-2 and in the assay on E. coli strain 25922 was 0.5 µg/mL (≈ 0.778 µM) throughout. Consider `C[C@H](NCCCN)c1cnn(C[C@@H]2[C@H](NC(=O)/C(=N\OC3(C(=O)O)CC3)c3csc(N)n3)C(=O)N2S(=O)(=O)O)n1` [Example 146, 1-(((Z)-(2-(((2R,3S)-2-((4-((S)-1-((3-aminopropyl)amino)ethyl)-2H-1,2,3-triazol-2-yl)methyl)-4-oxo-1-sulfoazetidin-3-yl)amino)-1-(2-aminothiazol-4-yl)-2-oxoethylidene)amino)oxy)cyclopropanecarboxylic acid], for which the MIC in the assay on E. coli containing KPC-2 and in the assay on E. coli strain 25922 was 0.5 µg/mL (≈ 0.832 µM) throughout. Take `N=C(NCCOCCN)NCc1cnn(C[C@@H]2[C@H](NC(=O)/C(=N\OC3(C(=O)O)CC3)c3csc(N)n3)C(=O)N2S(=O)(=O)O)n1` [Example 147, 1-(((Z)-(2-(((2R,3S)-2-((4-((3-(2-(2-aminoethoxy)ethyl)guanidino)methyl)-2H-1,2,3-triazol-2-yl)methyl)-4-oxo-1-sulfoazetidin-3-yl)amino)-1-(2-aminothiazol-4-yl)-2-oxoethylidene)amino)oxy)cyclopropanecarboxylic acid]: the MIC in the assay with E. coli containing KPC-2 and in the assay with E. coli strain 25922 was 0.5 µg/mL (≈ 0.759 µM) in each case. For `CN(Cc1cnn(C[C@@H]2[C@H](NC(=O)/C(=N\OC3(C(=O)O)CC3)c3csc(N)n3)C(=O)N2S(=O)(=O)O)n1)C(=N)NCCCN` [Example 148, 1-(((Z)-(2-(((2R,3S)-2-((4-((3-(3-aminopropyl)-1-methylguanidino)methyl)-2H-1,2,3-triazol-2-yl)methyl)-4-oxo-1-sulfoazetidin-3-yl)amino)-1-(2-aminothiazol-4-yl)-2-oxoethylidene)amino)oxy)cyclopropanecarboxylic acid], the minimal inhibitory concentration (MIC) in the assay on E. coli containing KPC-2 and in the assay on E. coli strain 25922 was 1 µg/mL (≈ 1.56 µM) throughout. `NCC1CN(C(=O)OCc2cnn(C[C@@H]3[C@H](NC(=O)/C(=N\OC4(C(=O)O)CC4)c4csc(N)n4)C(=O)N3S(=O)(=O)O)n2)C1` [Example 149, 1-(((Z)-(2-(((2R,3S)-2-((4-(((3-(aminomethyl)azetidine-1-carbonyl)oxy)methyl)-2H-1,2,3-triazol-2-yl)methyl)-4-oxo-1-sulfoazetidin-3-yl)amino)-1-(2-aminothiazol-4-yl)-2-oxoethylidene)amino)oxy)cyclopropanecarboxylic acid]: the MIC with E. coli containing KPC-2 and with E. coli strain 25922 was 0.5 µg/mL (≈ 0.778 µM) in each case. For `N=C(NCc1cnn(C[C@@H]2[C@H](NC(=O)/C(=N\OC3(C(=O)O)CC3)c3csc(N)n3)C(=O)N2S(=O)(=O)O)n1)N1CC[C@H](N)C1` [Example 150, 1-(((Z)-(2-(((2R,3S)-2-((4-(((S)-3-aminopyrrolidine-1-carboximidamido)methyl)-2H-1,2,3-triazol-2-yl)methyl)-4-oxo-1-sulfoazetidin-3-yl)amino)-1-(2-aminothiazol-4-yl)-2-oxoethylidene)amino)oxy)cyclopropanecarboxylic acid], the MIC with E. coli containing KPC-2 amounted to 0.5 µg/mL (≈ 0.78 µM); in the assay with E. coli strain 25922, 1 µg/mL (≈ 1.56 µM).

Regarding `CC(NCCCN)c1cnn(C[C@@H]2[C@H](NC(=O)/C(=N\OC3(C(=O)O)CC3)c3csc(N)n3)C(=O)N2S(=O)(=O)O)n1` (stereo partly drawn) [Example 151, 1-(((Z)-(2-(((2R,3S)-2-((4-(1-((3-aminopropyl)amino)ethyl)-2H-1,2,3-triazol-2-yl)methyl)-4-oxo-1-sulfoazetidin-3-yl)amino)-1-(2-aminothiazol-4-yl)-2-oxoethylidene)amino)oxy)cyclopropanecarboxylic acid], the MIC in the assay with E. coli containing KPC-2 and in the assay with E. coli strain 25922 was 0.5 µg/mL (≈ 0.832 µM) each time. Regarding `NCCS(=O)(=O)Cc1cnn(C[C@@H]2[C@H](NC(=O)/C(=N\OC3(C(=O)O)CC3)c3csc(N)n3)C(=O)N2S(=O)(=O)O)n1` [Example 152, 1-(((Z)-(2-(((2R,3S)-2-((4-(((2-aminoethyl)sulfonyl)methyl)-2H-1,2,3-triazol-2-yl)methyl)-4-oxo-1-sulfoazetidin-3-yl)amino)-1-(2-aminothiazol-4-yl)-2-oxoethylidene)amino)oxy)cyclopropanecarboxylic acid], the MIC with E. coli containing KPC-2 and with E. coli strain 25922 was 0.5 µg/mL (≈ 0.804 µM) each time.

As for `C[C@H]1[C@H](NC(=O)/C(=N\OC(C)(C)C(=O)O)c2csc(N)n2)C(=O)N1S(=O)(=O)O` [compound 1, reference compound], the MIC in assay [1] was above 32 µg/mL.
